The values below come from patent publication US9573907B2, “2, 4-pyrimidine derivatives and use thereof” (SNU R&DB FOUNDATION, priority 2009, dated 2017).

The target of test [1] is gp96 (Homo sapiens, UniProt P14625). Nature of the test: Surface plasmon resonance, GPM1 binding to gp96 WT. Also noted: made in house; host or cells: Escherichia coli BL21 (DE3). The method, then: Human gp96 was expressed as His tag fusion protein in Escherichia coli BL21 (DE3) and purified by nickel affinity chromatography. His-tagged human gp96 was immobilized onto CM5 sensor chips using standard amine coupling2. PBS was used as a running buffer. The carboxymethyl dextran surface within one side of the flow cell was activated with a 7-min injection of a 1:1 ratio of 0.4M EDC and 0.1M NHS. The protein was coupled to the surface with a 7-min injection of gp96 diluted in 10 mM sodium acetate, pH 3.7. Remaining activated groups were blocked with a 7-min injection of 1.0M ethanolamine, pH 8.5. GPM1 compound was dissolved directly in the PBS running buffer containing 1% DMSO and injected at a flow rate of 20 μl/min at 25° C. and the binding was determined by the change in resonance units (RU). The compound concentration varied from 10 nM to 25 μM and each concentration was tested at least three times. All of the bound complexes dissociated back to baseline within a reasonable time frame. Therefore, no regeneration was required. Sensorgram was processed by subtracting the binding response recorded from the control surface, followed by subtracting an average of the buffer blank injections from the reaction spot. To determine kinetic rate constants, all data sets were fit to a simple 1:1 binding with drifting baseline model using BIAevaluation program.

Test [2] deals with T1, interaction of gp96 with AIMP1 (Mus musculus, UniProt P08113).
T1 construct: endogenous in cells; host or cells: RAW24.7 (RAW264.7) cells
Nature of the test: Co-immunoprecipitation of gp96 with AIMP1 in RAW24.7 cells. Format: cell-based. The conditions noted are these: 10 μM, 24 h. The method, then:
FIGS. 1 to 9 represent suppression of cell surface gp96 by GPM1 reduces DC maturation and B220^+ population in gp96tm transgenic mice. (FIG. 1) Chemical structure of GPM1 (Formula 2) and negative control (NC1, Formula 16) used in this study. (FIG. 2) The dose-dependent effect of GPM1 or NC1 on the AIMP1-gp96 interaction using ELISA method as described. The indicated concentrations of the two compounds and biotin-conjugated murine gp96 were added to AIMP1 coated on the surface of microtiter wells, and gp96 bound to AIMP1 was detected with strepavidin-conjugated peroxidase. (FIG. 3) The binding of GPM1 to gp96 was examined by surface plasmon resonance (SPR). GPM1 at the indicated concentrations was injected to immobilized gp96 and the binding was measured using Biacore 3000. The response data were processed using data from a reference surface and buffer injections. Each concentration was tested in triplicate. (FIG. 4) RAW24.7 cells were treated with 10 μM GPM1 for 24 h. Cell lysates were immunoprecipitated with control IgG or anti-gp96 antibody and the immunoprecipitated proteins were immunoblotted with anti-KDELR1, antiAIMP1 and gp96 antibodies. WCL means whole cell lysate. […] TNFα secreted from BMDCs was quantified by ELISA. […]

Sequence of gp96 (P14625 22-803): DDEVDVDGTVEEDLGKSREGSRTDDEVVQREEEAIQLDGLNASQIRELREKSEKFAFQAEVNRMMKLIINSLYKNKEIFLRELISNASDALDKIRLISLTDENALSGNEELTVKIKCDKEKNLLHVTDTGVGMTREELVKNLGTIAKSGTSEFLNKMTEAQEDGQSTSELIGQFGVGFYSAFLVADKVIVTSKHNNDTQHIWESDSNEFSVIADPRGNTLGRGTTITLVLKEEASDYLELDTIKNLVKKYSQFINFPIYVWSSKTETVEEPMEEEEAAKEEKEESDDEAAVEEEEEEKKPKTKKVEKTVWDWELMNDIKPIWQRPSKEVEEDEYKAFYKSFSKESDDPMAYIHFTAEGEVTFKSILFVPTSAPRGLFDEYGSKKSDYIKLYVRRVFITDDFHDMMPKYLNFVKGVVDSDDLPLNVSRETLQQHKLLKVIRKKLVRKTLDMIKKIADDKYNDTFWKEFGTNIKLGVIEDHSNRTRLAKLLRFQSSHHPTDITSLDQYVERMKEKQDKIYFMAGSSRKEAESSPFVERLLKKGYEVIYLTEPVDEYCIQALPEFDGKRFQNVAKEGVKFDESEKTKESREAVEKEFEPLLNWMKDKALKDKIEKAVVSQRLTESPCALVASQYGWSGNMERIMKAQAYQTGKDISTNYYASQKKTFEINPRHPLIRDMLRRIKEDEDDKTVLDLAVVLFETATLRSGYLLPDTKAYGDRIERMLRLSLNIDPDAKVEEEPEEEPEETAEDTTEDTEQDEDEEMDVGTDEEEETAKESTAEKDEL
T1 sequence (P08113 22-802): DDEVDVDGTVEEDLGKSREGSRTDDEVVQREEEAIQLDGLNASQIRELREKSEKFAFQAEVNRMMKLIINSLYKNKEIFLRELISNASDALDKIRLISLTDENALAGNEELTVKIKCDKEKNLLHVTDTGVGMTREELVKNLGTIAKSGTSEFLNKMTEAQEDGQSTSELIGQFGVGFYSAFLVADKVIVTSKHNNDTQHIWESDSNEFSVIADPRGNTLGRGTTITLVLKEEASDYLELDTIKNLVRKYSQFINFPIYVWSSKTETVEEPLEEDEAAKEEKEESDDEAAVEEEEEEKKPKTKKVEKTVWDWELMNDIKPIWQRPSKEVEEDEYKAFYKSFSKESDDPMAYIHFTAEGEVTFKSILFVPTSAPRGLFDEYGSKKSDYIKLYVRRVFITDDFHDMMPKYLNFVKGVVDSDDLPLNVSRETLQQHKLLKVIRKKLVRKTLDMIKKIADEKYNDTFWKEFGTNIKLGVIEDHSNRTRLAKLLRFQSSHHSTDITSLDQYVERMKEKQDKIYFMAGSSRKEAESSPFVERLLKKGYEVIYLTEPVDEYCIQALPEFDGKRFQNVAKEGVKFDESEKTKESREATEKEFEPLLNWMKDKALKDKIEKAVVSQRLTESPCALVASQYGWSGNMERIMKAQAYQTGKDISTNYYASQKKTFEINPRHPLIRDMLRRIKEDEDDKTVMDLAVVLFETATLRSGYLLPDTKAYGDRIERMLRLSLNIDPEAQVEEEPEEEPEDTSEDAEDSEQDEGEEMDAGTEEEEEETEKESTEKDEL

One may read the Kd as a measure of binding affinity in units of concentration. A high value points to a looser complex. Take `COC(=O)[C@@H](Oc1nc(OC)cc(OC)n1)C(C)C` [GPM1, (S)-methyl 2-(4,6-dimethoxypyrimidin-2-yloxy)-3-methylbutanoate]: in test [1], the Kd amounted to 0.0879 µM and the “koff (dissociation rate constant)” value was 0.0154 s⁻¹. Further, the kon in test [1] (read-out: Ka) worked out at 175000 M⁻¹ s⁻¹. The “interaction of gp96 with AIMP1” value in test [2] is reported as “decreased”.
